Experiments:
human Gal-3 (hGal-3) = human Gal-3 (hGal-3) (Homo sapiens (Human), UniProt P17931); test: Competitive binding assay: biotinylated hGal-3 binding to microplate-adsorbed asialofetuin (ASF); settings: Activity on hGal-3; binding of biotinylated hGal-3 to ASF-coated plates; mean values
How it was run: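 Serially diluted compounds competed with biotinylated human Gal-3 for binding to plate-adsorbed asialofetuin over 3 h at 4 °C. Bound Gal-3 was detected with streptavidin-peroxidase (80 ng/mL, 1 h, 4 °C) and ABTS substrate. IC50 values are means of several measurements.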

human Gal-1 (hGal-1) = test: Competitive binding assay: biotinylated hGal-1 binding to microplate-adsorbed asialofetuin (ASF); settings: Activity on hGal-1; binding of biotinylated hGal-1 to ASF-coated plates; mean values
human Gal-1 (hGal-1), sequence (P09382 2-135 limits assumed): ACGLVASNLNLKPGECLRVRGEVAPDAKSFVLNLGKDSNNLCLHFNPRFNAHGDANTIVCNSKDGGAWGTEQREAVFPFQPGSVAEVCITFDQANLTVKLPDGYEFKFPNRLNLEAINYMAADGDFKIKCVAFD
How it was run: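 Biotinylated hGal-1 (300–1000 ng/mL; optionally a cysteine-free all-serine variant) incubated 3 h at 4 °C with compound on asialofetuin-coated plates, then streptavidin-peroxidase 1 h at 4 °C. ABTS readout at OD 410 nm after 30–45 min; IC50 given as mean of several runs.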

human Gal-3 (hGal-3), sequence (P17931 whole entry): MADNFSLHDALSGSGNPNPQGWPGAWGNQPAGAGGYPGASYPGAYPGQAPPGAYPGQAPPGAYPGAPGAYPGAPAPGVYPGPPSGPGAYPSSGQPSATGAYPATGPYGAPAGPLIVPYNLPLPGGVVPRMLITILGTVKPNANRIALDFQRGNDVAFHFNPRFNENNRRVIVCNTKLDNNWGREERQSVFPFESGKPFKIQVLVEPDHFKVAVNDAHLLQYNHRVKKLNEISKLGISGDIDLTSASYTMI

SMILES | IC50 (human Gal-3 (hGal-3)) [nM] | IC50 (human Gal-1 (hGal-1)) [nM]
COc1cc(C#N)cc(N(C(=O)[C@@H]2O[C@H](CO)[C@H](O)[C@H](n3cc(-c4cc(F)c(F)c(F)c4)nn3)[C@H]2OC)[C@H]2CCCC[C@@H]2O)c1 [Example 108, (2R,3R,4S,5R,6R)-N-(3-cyano-5-methoxyphenyl)-5-hydroxy-N-((1S,2S)-2-hydroxycyclohexyl)-6-(hydroxymethyl)-3-methoxy-4-(4-(3,4,5-trifluorophenyl)-1H-1,2,3-triazol-1-yl)tetrahydro-2H-pyran-2-carboxamide] | 24 | 1570
CO[C@@H]1[C@@H](n2cc(-c3cc(F)c(F)c(F)c3)nn2)[C@@H](O)[C@@H](CO)O[C@H]1C(=O)N(c1cc(Br)ccc1C)[C@H]1CCCC[C@@H]1O [Example 109, (2R,3R,4S,5R,6R)-N-(5-bromo-2-methylphenyl)-5-hydroxy-N-((1S,2S)-2-hydroxycyclohexyl)-6-(hydroxymethyl)-3-methoxy-4-(4-(3,4,5-trifluorophenyl)-1H-1,2,3-triazol-1-yl)tetrahydro-2H-pyran-2-carboxamide] | 17 | 100
CO[C@@H]1[C@@H](n2cc(-c3cc(F)c(F)c(F)c3)nn2)[C@@H](O)[C@@H](CO)O[C@H]1C(=O)N(c1cc(F)cc(C#N)c1)[C@H]1CCCC[C@@H]1O [Example 113, (2R,3R,4S,5R,6R)-N-(3-cyano-5-fluorophenyl)-5-hydroxy-N-((1S,2S)-2-hydroxycyclohexyl)-6-(hydroxymethyl)-3-methoxy-4-(4-(3,4,5-trifluorophenyl)-1H-1,2,3-triazol-1-yl)tetrahydro-2H-pyran-2-carboxamide] | 18 | 520
CO[C@@H]1[C@@H](n2cc(-c3cc(F)c(F)c(F)c3)nn2)[C@@H](O)[C@@H](CO)O[C@H]1C(=O)N(c1cccc(C(F)(F)F)c1)[C@H]1CCCC[C@@H]1O [Example 116, (2R,3R,4S,5R,6R)-5-hydroxy-N-((1S,2S)-2-hydroxycyclohexyl)-6-(hydroxymethyl)-3-methoxy-N-(3-(trifluoromethyl)phenyl)-4-(4-(3,4,5-trifluorophenyl)-1H-1,2,3-triazol-1-yl)tetrahydro-2H-pyran-2-carboxamide] | 26 | 1950
CO[C@@H]1[C@@H](n2cc(-c3cc(F)c(F)c(F)c3)nn2)[C@@H](O)[C@@H](CO)O[C@H]1C(=O)N(c1cc(C)cc(F)c1)[C@H]1CCCC[C@@H]1O [Example 119, (2R,3R,4S,5R,6R)-N-(3-fluoro-5-methylphenyl)-5-hydroxy-N-((1S,2S)-2-hydroxycyclohexyl)-6-(hydroxymethyl)-3-methoxy-4-(4-(3,4,5-trifluorophenyl)-1H-1,2,3-triazol-1-yl)tetrahydro-2H-pyran-2-carboxamide] | 30 | 1830
CO[C@@H]1[C@@H](n2cc(-c3cc(F)c(F)c(F)c3)nn2)[C@@H](O)[C@@H](CO)O[C@H]1C(=O)N(c1cc(F)cc(Br)c1)[C@H]1CCCC[C@@H]1O [Example 120, (2R,3R,4S,5R,6R)-N-(3-bromo-5-fluorophenyl)-5-hydroxy-N-((1S,2S)-2-hydroxycyclohexyl)-6-(hydroxymethyl)-3-methoxy-4-(4-(3,4,5-trifluorophenyl)-1H-1,2,3-triazol-1-yl)tetrahydro-2H-pyran-2-carboxamide] | 21 | 422
CO[C@@H]1[C@@H](n2cc(-c3cc(F)c(F)c(F)c3)nn2)[C@@H](O)[C@@H](CO)O[C@H]1C(=O)N(c1cccc(C)c1)[C@H]1CCCC[C@@H]1O [Example 122, (2R,3R,4S,5R,6R)-5-hydroxy-N-((1S,2S)-2-hydroxycyclohexyl)-6-(hydroxymethyl)-3-methoxy-N-(m-tolyl)-4-(4-(3,4,5-trifluorophenyl)-1H-1,2,3-triazol-1-yl)tetrahydro-2H-pyran-2-carboxamide] | 43 | 4750
CO[C@@H]1[C@@H](n2cc(-c3cc(F)c(F)c(F)c3)nn2)[C@@H](O)[C@@H](CO)O[C@H]1C(=O)N(c1ccc2nc(C)[nH]c2c1)[C@H]1CCCC[C@@H]1O [Example 123, (2R,3R,4S,5R,6R)-5-hydroxy-N-((1S,2S)-2-hydroxycyclohexyl)-6-(hydroxymethyl)-3-methoxy-N-(2-methyl-1H-benzo[d]imidazol-6-yl)-4-(4-(3,4,5-trifluorophenyl)-1H-1,2,3-triazol-1-yl)tetrahydro-2H-pyran-2-carboxamide] | 85 | 5880
O=C(CO[C@@H]1[C@@H](n2cc(-c3cc(F)c(F)c(F)c3)nn2)[C@@H](O)[C@@H](CO)O[C@H]1C(=O)N(c1cc(Cl)cc(Cl)c1)[C@H]1CCCC[C@@H]1O)N1CC[C@@H](O)C1 [Example 126, (2R,3R,4S,5R,6R)—N-(3,5-dichlorophenyl)-5-hydroxy-N-((1S,2S)-2-hydroxycyclohexyl)-6-(hydroxymethyl)-3-(2-((R)-3-hydroxypyrrolidin-1-yl)-2-oxoethoxy)-4-(4-(3,4,5-trifluorophenyl)-1H-1,2,3-triazol-1-yl)tetrahydro-2H-pyran-2-carboxamide] | 16 | 134

More lines, in order of falling IC50 (human Gal-3 (hGal-3)), values ahead:

IC50 (human Gal-3 (hGal-3)) [nM] | IC50 (human Gal-1 (hGal-1)) [nM] | SMILES
158 | 4220 | CO[C@@H]1[C@@H](n2cc(-c3cc(F)c(F)c(F)c3)nn2)[C@@H](O)[C@@H](CO)O[C@H]1C(=O)N(c1ccc(Cl)cc1)[C@H]1CCCC[C@@H]1O [Example 111, (2R,3R,4S,5R,6R)-N-(4-chlorophenyl)-5-hydroxy-N-((1S,2S)-2-hydroxycyclohexyl)-6-(hydroxymethyl)-3-methoxy-4-(4-(3,4,5-trifluorophenyl)-1H-1,2,3-triazol-1-yl)tetrahydro-2H-pyran-2-carboxamide]
49 | 2010 | CO[C@@H]1[C@@H](n2cc(-c3cc(F)c(F)c(F)c3)nn2)[C@@H](O)[C@@H](CO)O[C@H]1C(=O)N(c1cccc(F)c1)[C@H]1CCCC[C@@H]1O [Example 114, (2R,3R,4S,5R,6R)-N-(3-fluorophenyl)-5-hydroxy-N-((1S,2S)-2-hydroxycyclohexyl)-6-(hydroxymethyl)-3-methoxy-4-(4-(3,4,5-trifluorophenyl)-1H-1,2,3-triazol-1-yl)tetrahydro-2H-pyran-2-carboxamide]
38 | 978 | CO[C@@H]1[C@@H](n2cc(-c3cc(F)c(F)c(F)c3)nn2)[C@@H](O)[C@@H](CO)O[C@H]1C(=O)N(c1cc(F)cc(F)c1)[C@H]1CCCC[C@@H]1O [Example 117, (2R,3R,4S,5R,6R)-N-(3,5-difluorophenyl)-5-hydroxy-N-((1S,2S)-2-hydroxycyclohexyl)-6-(hydroxymethyl)-3-methoxy-4-(4-(3,4,5-trifluorophenyl)-1H-1,2,3-triazol-1-yl)tetrahydro-2H-pyran-2-carboxamide]
26 | 1480 | COc1cc(F)cc(N(C(=O)[C@@H]2O[C@H](CO)[C@H](O)[C@H](n3cc(-c4cc(F)c(F)c(F)c4)nn3)[C@H]2OC)[C@H]2CCCC[C@@H]2O)c1 [Example 118, (2R,3R,4S,5R,6R)-N-(3-fluoro-5-methoxyphenyl)-5-hydroxy-N-((1S,2S)-2-hydroxycyclohexyl)-6-(hydroxymethyl)-3-methoxy-4-(4-(3,4,5-trifluorophenyl)-1H-1,2,3-triazol-1-yl)tetrahydro-2H-pyran-2-carboxamide]
25 | 1000 | CO[C@@H]1[C@@H](n2cc(-c3cc(F)c(F)c(F)c3)nn2)[C@@H](O)[C@@H](CO)O[C@H]1C(=O)N(c1cccc(C#N)c1)[C@H]1CCCC[C@@H]1O [Example 115, (2R,3R,4S,5R,6R)-N-(3-cyanophenyl)-5-hydroxy-N-((1S,2S)-2-hydroxycyclohexyl)-6-(hydroxymethyl)-3-methoxy-4-(4-(3,4,5-trifluorophenyl)-1H-1,2,3-triazol-1-yl)tetrahydro-2H-pyran-2-carboxamide]
19 | 449 | CO[C@@H]1[C@@H](n2cc(-c3cc(F)c(F)c(F)c3)nn2)[C@@H](O)[C@@H](CO)O[C@H]1C(=O)N(c1cc(F)cc(Cl)c1)[C@H]1CCCC[C@@H]1O [Example 121, (2R,3R,4S,5R,6R)-N-(3-chloro-5-fluorophenyl)-5-hydroxy-N-((1S,2S)-2-hydroxycyclohexyl)-6-(hydroxymethyl)-3-methoxy-4-(4-(3,4,5-trifluorophenyl)-1H-1,2,3-triazol-1-yl)tetrahydro-2H-pyran-2-carboxamide]
12 | 226 | O=C(CO[C@@H]1[C@@H](n2cc(-c3cc(F)c(F)c(F)c3)nn2)[C@@H](O)[C@@H](CO)O[C@H]1C(=O)N(c1cc(Cl)cc(Cl)c1)[C@H]1CCCC[C@@H]1O)N1CCOCC1 [Example 124, (2R,3R,4S,5R,6R)—N-(3,5-dichlorophenyl)-5-hydroxy-N-((1S,2S)-2-hydroxycyclohexyl)-6-(hydroxymethyl)-3-(2-morpholino-2-oxoethoxy)-4-(4-(3,4,5-trifluorophenyl)-1H-1,2,3-triazol-1-yl)tetrahydro-2H-pyran-2-carboxamide]
9 | 134 | O=C(CO[C@@H]1[C@@H](n2cc(-c3cc(F)c(F)c(F)c3)nn2)[C@@H](O)[C@@H](CO)O[C@H]1C(=O)N(c1cc(Cl)cc(Cl)c1)[C@H]1CCCC[C@@H]1O)N1CC[C@H](O)C1 [Example 125, (2R,3R,4S,5R,6R)—N-(3,5-dichlorophenyl)-5-hydroxy-N-((1S,2S)-2-hydroxycyclohexyl)-6-(hydroxymethyl)-3-(2-((S)-3-hydroxypyrrolidin-1-yl)-2-oxoethoxy)-4-(4-(3,4,5-trifluorophenyl)-1H-1,2,3-triazol-1-yl)tetrahydro-2H-pyran-2-carboxamide]

— US12291519B2, “2-hydroxycycloalkane-1-carbamoyl” (Idorsia Pharmaceuticals Ltd, priority 2019, dated 2025)
